According to patent US20080241904A1, “PROCESS FOR PRODUCING ISOMALTOSE AND USES THEREOF” (KABUSHIKI KAISHA HAYASHIBARA SEIBUTSU KAGAKU KENKYUJO, priority 2001, published 2008):

Columns and labels:
[1] = tested on: α-isomaltosylglucosaccharide-forming enzyme from Bacillus globisporus C9 strain; assay: Specificity of saccharide transferring reaction acceptor, enzyme of Strain C9; format: biochemical; set-up: key: −: no saccharide-transferred product was detected through transferring reaction to acceptor; ±: a saccharide-transferred product was detected in an amount of less than one percent through transfer reaction to acceptor; +: a saccharide-transferred product was detected in an amount of at least one percent but less than ten percent through transferring reaction to acceptor; ++: a saccharide-transferred product was detected in an amount of at least ten percent through transferring reaction to acceptor; settings: 1.6% acceptor, 4% PINE-DEX #100 as donor, one unit/g donor, 30° C., pH 6.0, 24 hours; GLC or HPLC
Method: (§1) Using different saccharides, it was tested whether the saccharides were used as saccharide transferring reaction acceptors for the α-isomaltosylglucosaccharide-forming enzyme. A 1.6% solution, as a solution of saccharide transferring reaction acceptor, of D-glucose, D-xylose, L-xylose, D-galactose, D-fructose, D-mannose, D-arabinose, D-fucose, L-sorbose, L-rhamnose, methyl-α-glucopyranoside (methyl-α-glucose), methyl-β-glucopyranoside ([…]), N-acetyl-glucosamine, sorbitol, α,α-trehalose, isomaltose, isomaltotriose, cellobiose, gentibiose, maltitol, lactose, sucrose, α-cyclodextrin, β-cyclodextrin, or γ-cyclodextrin, was prepared. To each solution with a saccharide concentration was added “PINE-DEX #100”, a partial starch hydrolysate, as a saccharide donor, to give a concentration of 4%, and admixed with one unit/g saccharide donor, d.s.b., of either of purified specimens of α-isomaltosylglucosaccharide-forming enzyme from Bacillus globisporus C9 strain obtained by the method in Experiment 2-1, Bacillus globisporus C11 strain obtained by the method in Experiment 4-1. The resulting mixture solutions were incubated at 30° C. and pH 6.0 except that the enzyme from Arthrobacter globiformis A19 strain was incubated at pH 8.4 for 24 hours. The reaction mixtures of the post-enzymatic reactions were analyzed on gas chromatography (abbreviated as “GLC” hereinafter) for monosaccharides and disaccharides as acceptors, and on HPLC for trisaccharides as acceptors to confirm whether these saccharides could be used as their saccharide transferring reaction acceptors. In the case of performing GLC, the following apparatuses and conditions are used: GLC apparatus, “GC-16A” commercialized by Shimadzu Corporation, Tokyo, Japan; column, a stainless-steel column, 3 mm in diameter and 2 m in length, packed with 2% “SILICONE OV-17/CHROMOSOLV W”, commercialized by GL Sciences Inc., Tokyo, Japan; carrier gas, nitrogen gas at a flow rate of 40 ml/min under temperature conditions of increasing from 160° C. to 320° C. at an increasing temperature rate of 7.5° C./min; and detection, a hydrogen flame ionization detector.
(§2) In the case of HPLC analysis, the apparatuses and conditions used were: HPLC apparatus, “CCPD” commercialized by Tosoh Corporation, Tokyo, Japan; column, “ODS-AQ-303” commercialized by YMC Co., Ltd., Tokyo, Japan; eluent, water at a flow rate of 0.5 ml/min; and detection, a differential refractometer.

[2] = tested on: α-isomaltosylglucosaccharide-forming enzyme from Bacillus globisporus C11 strain; assay: Specificity of saccharide transferring reaction acceptor, enzyme of Strain C11; format: biochemical; set-up: key: −: no saccharide-transferred product was detected through transferring reaction to acceptor; ±: a saccharide-transferred product was detected in an amount of less than one percent through transfer reaction to acceptor; +: a saccharide-transferred product was detected in an amount of at least one percent but less than ten percent through transferring reaction to acceptor; ++: a saccharide-transferred product was detected in an amount of at least ten percent through transferring reaction to acceptor; settings: 1.6% acceptor, 4% PINE-DEX #100 as donor, one unit/g donor, 30° C., pH 6.0, 24 hours; GLC or HPLC
Method: as §1, §2

Compound	Product of saccharide transferring reaction, Enzyme of Strain C9 [1]	Product of saccharide transferring reaction, Enzyme of Strain C11 [2]
O=C[C@H](O)[C@@H](O)[C@@H](O)[C@H](O)CO [D-Galactose, D-galactose]	+ (a saccharide-transferred product was detected in an amount of at least one percent but less than ten percent through transferring reaction to acceptor)	+ (a saccharide-transferred product was detected in an amount of at least one percent but less than ten percent through transferring reaction to acceptor)
O=C[C@@H](O)[C@H](O)[C@@H](O)CO [L-Xylose, L-xylose]	++ (a saccharide-transferred product was detected in an amount of at least ten percent through transferring reaction to acceptor)	++ (a saccharide-transferred product was detected in an amount of at least ten percent through transferring reaction to acceptor)
O=C[C@@H](O)[C@@H](O)[C@H](O)[C@H](O)CO [D-Mannose, D-mannose]	−	−
OC[C@H]1O[C@@H]2O[C@H]3[C@H](O)[C@@H](O)[C@@H](O[C@H]4[C@H](O)[C@@H](O)[C@@H](O[C@H]5[C@H](O)[C@@H](O)[C@@H](O[C@H]6[C@H](O)[C@@H](O)[C@@H](O[C@H]7[C@H](O)[C@@H](O)[C@@H](O[C@H]1[C@H](O)[C@H]2O)O[C@@H]7CO)O[C@@H]6CO)O[C@@H]5CO)O[C@@H]4CO)O[C@@H]3CO [α-Cyclodextrin, α-cyclodextrin]	−	−
OC[C@@H](O)[C@@H](O)[C@H](O)[C@@H](O)CO [Sorbitol, sorbitol]	−	−
O=C(CO)[C@@H](O)[C@H](O)[C@H](O)CO [D-Fructose, D-fructose]	+ (a saccharide-transferred product was detected in an amount of at least one percent but less than ten percent through transferring reaction to acceptor)	+ (a saccharide-transferred product was detected in an amount of at least one percent but less than ten percent through transferring reaction to acceptor)
OC[C@H]1O[C@@H]2O[C@H]3[C@H](O)[C@@H](O)[C@@H](O[C@H]4[C@H](O)[C@@H](O)[C@@H](O[C@H]5[C@H](O)[C@@H](O)[C@@H](O[C@H]6[C@H](O)[C@@H](O)[C@@H](O[C@H]7[C@H](O)[C@@H](O)[C@@H](O[C@H]8[C@H](O)[C@@H](O)[C@@H](O[C@H]1[C@H](O)[C@H]2O)O[C@@H]8CO)O[C@@H]7CO)O[C@@H]6CO)O[C@@H]5CO)O[C@@H]4CO)O[C@@H]3CO [β-Cyclodextrin, β-cyclodextrin]	−	−
CO[C@@H]1O[C@H](CO)[C@@H](O)[C@H](O)[C@H]1O [Methyl-β-glucopyranoside, methyl-β-glucopyranoside]	++ (a saccharide-transferred product was detected in an amount of at least ten percent through transferring reaction to acceptor)	++ (a saccharide-transferred product was detected in an amount of at least ten percent through transferring reaction to acceptor)
C[C@@H](O)[C@H](O)[C@H](O)[C@@H](O)C=O [D-Fucose, D-fucose]	+ (a saccharide-transferred product was detected in an amount of at least one percent but less than ten percent through transferring reaction to acceptor)	+ (a saccharide-transferred product was detected in an amount of at least one percent but less than ten percent through transferring reaction to acceptor)
CC(=O)N[C@H]1C(O)O[C@H](CO)[C@@H](O)[C@@H]1O (stereo partly shown) [N-Acetyl-glucosamine, N-acetyl-glucosamine]	+ (a saccharide-transferred product was detected in an amount of at least one percent but less than ten percent through transferring reaction to acceptor)	+ (a saccharide-transferred product was detected in an amount of at least one percent but less than ten percent through transferring reaction to acceptor)
O=C(CO)[C@@H](O)[C@H](O)[C@@H](O)CO [L-Sorbose, L-sorbose]	+ (a saccharide-transferred product was detected in an amount of at least one percent but less than ten percent through transferring reaction to acceptor)	+ (a saccharide-transferred product was detected in an amount of at least one percent but less than ten percent through transferring reaction to acceptor)
CO[C@H]1O[C@H](CO)[C@@H](O)[C@H](O)[C@H]1O [Methyl-α-glucopyranoside, methyl-α-glucopyranoside]	++ (a saccharide-transferred product was detected in an amount of at least ten percent through transferring reaction to acceptor)	++ (a saccharide-transferred product was detected in an amount of at least ten percent through transferring reaction to acceptor)
O=C[C@H](O)[C@@H](O)[C@H](O)[C@H](O)CO [D-Glucose, D-glucose]	+ (a saccharide-transferred product was detected in an amount of at least one percent but less than ten percent through transferring reaction to acceptor)	+ (a saccharide-transferred product was detected in an amount of at least one percent but less than ten percent through transferring reaction to acceptor)
O=C[C@@H](O)[C@H](O)[C@H](O)CO [D-Arabinose, D-arabinose]	± (a saccharide-transferred product was detected in an amount of less than one percent through transfer reaction to acceptor)	± (a saccharide-transferred product was detected in an amount of less than one percent through transfer reaction to acceptor)
OC[C@H]1O[C@@H]2O[C@H]3[C@H](O)[C@@H](O)[C@@H](O[C@H]4[C@H](O)[C@@H](O)[C@@H](O[C@H]5[C@H](O)[C@@H](O)[C@@H](O[C@H]6[C@H](O)[C@@H](O)[C@@H](O[C@H]7[C@H](O)[C@@H](O)[C@@H](O[C@H]8[C@H](O)[C@@H](O)[C@@H](O[C@H]9[C@H](O)[C@@H](O)[C@@H](O[C@H]1[C@H](O)[C@H]2O)O[C@@H]9CO)O[C@@H]8CO)O[C@@H]7CO)O[C@@H]6CO)O[C@@H]5CO)O[C@@H]4CO)O[C@@H]3CO [γ-Cyclodextrin, γ-cyclodextrin]	−	−
O=C[C@H](O)[C@@H](O)[C@H](O)CO [D-Xylose, D-xylose]	++ (a saccharide-transferred product was detected in an amount of at least ten percent through transferring reaction to acceptor)	++ (a saccharide-transferred product was detected in an amount of at least ten percent through transferring reaction to acceptor)
C[C@H](O)[C@H](O)[C@@H](O)[C@@H](O)C=O [L-Rhamnose, L-rhamnose]	−	−
